Results on nine molecules are retold here after US20040034002A1, “3Alpha-hydroxy-3beta-methoxymethyl-substituted steroids and the use thereof” (Euro-Celtique S.A., priority 1999, published 2004).

Bounds are passed on as bounds.

Data set [1] has as its target [35S]-tert-butylbicyclophosphorothionate (TBPS) binding. The experiment in a line: Inhibition of [35S]-TBPS binding (in vitro potency). The arrangement: species or system rat. As to conditions: dose of steroid inhibiting 50% of specific binding of [35S]-TBPS. Here is the method: (§1) Table I below compares the in vitro potencies [ability to inhibit the binding of [^35S]-tert-butylbicyclophosphorothionate (TBPS)], rotorod TD50's (dose at which half of animals tested fail to stay on a rotating rod for 1 minute) and the length of time before all animals tested are able to pass rotorod test (duration of action) of closely structurally related pairs of 3β-methyl and 3β-methoxymethyl steroids. These methods for measuring in vitro and in vivo activity of compounds of the invention are fully described in U.S. Pat. No. 5,232,917. The TBPS assay gives the in vitro potency of compounds whereas the rotorod assay estimates the sedative/hypnotic activity of compounds. Since the duration of action of a compound is dependent on the dose and will be prolonged at higher doses, the duration of action was measured at the lowest dose where all of the animals failed the rotorod test. For compounds with duration of action >240 minutes, the number of animals passing the rotorod test at 240 minutes is given in parentheses. In each pair, the […] steroid has a biological duration action of greater than 240 minutes, while in each of the corresponding 3β-methoxymethyl steroids the duration of action is reduced to 180 minutes or less. […] Thus, specific 3β-methoxymethyl-substituted neuroactive steroids gave unique and unexpected pharmacokinetic profiles, making them especially useful as sedative/hypnotic and anesthetic agents.

The test system of a further data set is rat. The experiment in a line: Rotorod test (sedative/hypnotic activity and duration of action). The data set is classed as in vivo. The note with it: for Number of animals passing the rotorod test at 240 minutes: given for compounds with duration of action >240 minutes; for TD50: Rattus norvegicus, 1 min, read-out: RR TD50 po; for Duration of action: at lowest dose where all animals failed the rotorod test, time until all animals pass again. On the procedure: as §1
(In the rotarod test animals must keep their balance on a rotating rod.)

Setting [2] is: po, po, dose at which half of animals fail to stay on a rotating rod for 1 minute.

As a reminder, the IC50 is the midpoint of a concentration-inhibition curve. The low end stands for inhibition by little substance, the high end for a need for much substance. One may read the TD50 as the dose at which the toxic effect under study appears in half of the subjects. In data set [1], `CC1(O)CCC2(C)C(CCC3C2CCC2(C)C(C(=O)Cn4ncnn4)CCC32)C1` (stereo not drawn) [3α-Hydroxy-3β-methyl-21-(2′-tetrazolyl)-5α-pregnan-20-one, reference compound] displayed a half-maximal inhibitory concentration (IC50) of 44 nM. Besides, in the data set on rat, the “Number of animals passing the rotorod test at 240 minutes” value (“Number” for short) is reported as “(0/8” and the Duration of action was above 240 min. Moreover, in the data set with rat (setting [2]), the TD50 worked out at 4.5 mg/kg.

`CC1(O)CCC2(C)C(CCC3C2CCC2(C)C(C(=O)COc4ccc5c(ccc[n+]5[O-])c4)CCC32)C1` (stereo not drawn) [3α-Hydroxy-3β-methyl-21-(quinolin-6-yloxy)-5α-pregnan-20-one, N-oxide, reference compound]: the IC50 in data set [1] came to 46 nM. Also, in the data set with rat, the “Number” value is reported as “(1/8” and the Duration of action is above 240 min. Further, the TD50 in the data set on rat (setting [2]) turned out to be 15 mg/kg.

For orientation: melting point means the temperature, or range, at which the solid turns liquid. With `COCC1(O)CCC2(C)C(CCC3C2CCC2(C)C(C(=O)CSc4nnc(N)s4)CCC32)C1` (stereo not drawn) [21-(5′-Amino-[1,3,4]-thiadiazol-2-ylthio)-3 α-hydroxy-3β-methoxymethyl-5α-pregnan-20-one], the melting point was in the range of 169 to 172 °C. This molecule gave an IC50 in data set [1] of 48 nM. Also, the TD50 in the data set on rat (setting [2]) stood at 40 mg/kg. This molecule returned a Duration of action in the data set with rat below 90 min.

Consider `COCC1(O)CCC2(C)C(CCC3C2CCC2(C)C(C(=O)Cn4ccnc4)CCC32)C1` (stereo not drawn) [3α-Hydroxy-21-(1′-imidazolyl)-3β-methoxymethyl-5β-pregnan-20] [3α-Hydroxy-21-(1′-imidazolyl)-3β-methoxymethyl-5β-pregnan-20-one], for which the IC50 in data set [1] was determined as 174 nM. The same molecule showed a Duration of action in the data set with rat below 180 min.

`COCC1(O)CCC2(C)C(CCC3C2CCC2(C)C(C(=O)COc4ccc5c(ccc[n+]5[O-])c4)CCC32)C1` (stereo not drawn) [3α-Hydroxy-3β-methoxymethyl-21-(quinolin-6-yloxy)-5α-pregnan-20-one, N-oxide]: in data set [1], the IC50 came to 25 nM. In addition, the TD50 with rat (setting [2]) was determined as 29 mg/kg. For the same molecule, the Duration of action in the data set with rat was found to be 84 min.

`COCC1(O)CCC2(C)C(CCC3C2CCC2(C)C(C(=O)Cn4ncnn4)CCC32)C1` (stereo not drawn) [3α-Hydroxy-3β-methoxymethyl-21-(2′-tetrazolyl)-5α-pregnan-20-one] displayed an IC50 in data set [1] of 24 nM. Moreover, the TD50 in the data set on rat (setting [2]) amounted to 35 mg/kg. In addition, the Duration of action in the data set with rat was 120 min.

With `CC1(O)CCC2(C)C(CCC3C2CCC2(C)C(C(=O)Cn4ccnc4)CCC32)C1` (stereo not drawn) [3α-Hydroxy-21-(1′-imidazolyl)-3β-methyl-5α-pregnan-20-one, reference compound], in data set [1], the IC50 worked out at 97 nM. Further, in the data set with rat, the “Number” value is “(3/8” and the Duration of action was above 240 min. Moreover, in the data set on rat (setting [2]), the TD50 amounted to 31 mg/kg.

In data set [1], `COCC1(O)CCC2(C)C(CCC3C2CCC2(C)C(C(=O)Cn4ccnc4)CCC32)C1` (stereo not drawn) [3α-Hydroxy-21-(1′-imidazolyl)-3β-methoxymethyl-5α-pregnan-20] [3α-Hydroxy-21-(1′-imidazolyl)-3β-methoxymethyl-5α-pregnan-20-one] had an IC50 of 138 nM. The molecule also displayed a Duration of action with rat of 140 min. For the same molecule, the “RR TD50 po” value in the data set with rat (po, dose at which half of animals fail to stay on a rotating rod for 1 minute) is given as 28 mg/kg.

On to `COCC1(O)CCC2(C)C(CCC3C2CCC2(C)C(C(=O)Cn4ccnc4)CCC32)C1` (stereo not drawn) [3α-Hydroxy-21-(1′-imidazolyl)-3β-methoxymethyl-5β-pregnan-20-one], for which, in the data set on rat (setting [2]), the TD50 was determined as 30 mg/kg.
